Values of other authors as cited in article PMC2803440 (Current Chemical Genomics, 2008).

Biological target: recombinant variant of PON1

Ki: 3000 nM
Compound: Oc1ccc2ccccc2n1 [Compound 2HQ, 2-hydroxyquinoline]
